Data as given in a melting point compilation (Tetko et al.; mined from patent text by program, amines drawn as free bases though some values may be those of a salt).

SMILES	melting point [°C]
CN1CC(=O)N(c2ccc3c(c2)CCC3)C1=S	158 to 160
NC(=O)CCN1CCN(C(=O)c2cc(C(F)(F)F)cc(C(F)(F)F)c2)[C@H](Cc2c[nH]c3ccccc23)C1	80 to 100
CCCCCCCCCCCCCCCCCCN(CCCCCCCCCCCCCCCCCC)CCCN(CC(=O)OC)CC(=O)OC	75 to 77
CNC(=O)N1CC(Oc2ccccc2C(F)(F)F)C1	134 to 136
Cc1cc2c(cn1)c(C#N)c(-c1ncc(S(=O)(=O)NC(C)C)cn1)n2C1CCC1	242 to 243
CC(=O)Nc1ccc(N2CC(CNC(C)=S)OC2=O)cc1F (stereo not drawn)	200 to 201
CC(C)(C)OC(=O)C(C)(C)ON=C(C(=O)O)c1cccs1	201 to 202
O=C(O)COc1ccc2cc(CNC(=O)c3cc(-c4ccc(Cl)cc4)oc3C(F)(F)F)ccc2c1	194 to 196
CC(=O)NCC1CC1c1cccc2nc(C)nn12 (stereo not drawn)	124 to 126
CNC(=O)c1ccc(-n2nc(C(=O)NC3(C(=O)O)C4CC5CC(C4)CC3C5)cc2-c2c(OC)cccc2OC)c2ccccc12 (stereo not drawn)	170
CN(C)S(=O)(=O)c1ccc2c(C=O)c[nH]c2c1	250 to 252
COc1cc(NC(=O)NC2CC(O)CC2N2CCC(Cc3ccc(Cl)cc3)CC2)cc(OC)c1OC (stereo not drawn)	81 to 84
Cc1ccc(S(=O)(=O)Oc2ccc(NC(=O)NCCCl)cc2)cc1	149 to 150
COC(=O)c1ccc(C(=O)c2ccc(C(=O)OC)cc2)cc1	228 to 230
CC(=O)OC1CC2C(=O)CC3C(CCC4(C)C(C(C)C=CC(C)C(C)C)CCC34)C2(C)CC1OC(C)=O (stereo not drawn)	196 to 197
N#CC(=NO)C(=O)c1ccccc1	117 to 119
Cc1ccc(N=C2NCCN2)cc1NS(C)(=O)=O	124 to 126
COc1cc2c(cc1N)N(C)C(=O)CN(CC#N)C2	128 to 132
CN(C)C(=Nc1ccccc1N1CCOCC1)N1CCCCC1	88 to 90

SMILES	melting point [°C]
Cc1c(C(=O)O)c(CC(=O)O)n(C)c1C(=O)c1ccc(Cl)cc1	253 to 254
COC(=O)C1=NN(c2ccc(F)cc2)C(C)(C(=O)OC)C1 (stereo not drawn)	114 to 118
COc1ccc2c(c1)c(CC(=O)O)c(C)n2C(=O)c1ccc(F)c(F)c1	113 to 115
COc1ccc(C2(C34CC5CC(CC(C5)C3)C4)N=C(N)N(C)C2=O)cc1OC (stereo not drawn)	130
CC(C)(C)OC(=O)N1CCN(c2nccc(Oc3ccc(NC(=O)c4cc(F)cc(N5CCOCC5)c4)c4ccccc34)n2)CC1	131 to 133
CCOC(=NC(=O)c1ccc(-c2ccccc2)cc1)N1Cc2ccccc2-c2ccccc2C1	52 to 58
O=c1c2c(CCc3ccncc3)n[nH]c2c2cccnc2n1-c1cccc([N+](=O)[O-])c1	161 to 165
CC(=NO)C(C)(C)NCC(O)CNC(C)(C)C(CCn1ccnc1[N+](=O)[O-])=NO (stereo not drawn)	62 to 64
CN1C(=O)CCC2(C)C3CCC4(C)C(OCC(=O)O)CCC4C3CCC12 (stereo not drawn)	180 to 184
Cc1csc2c(C(=O)O)c(=O)c3cc4c(cc3n12)OCO4	303 to 305
CCCCCCCCCCc1nnn(CC(=O)Nc2c(C(C)C)cccc2C(C)C)n1	108 to 110
Cc1ccc(CN2C(=O)C(C)Oc3c(C(=O)NC4CN5CCC4CC5)cc(Cl)cc32)cc1 (stereo not drawn)	156
Cn1c(C(F)(F)F)ccc(-c2c(F)cc(Cl)c3oc(CBr)cc23)c1=O	142 to 144
C[Si](C)(C)c1c(C#N)c(C(F)(F)F)nn1-c1c(Cl)cc(C(F)(F)F)cc1Cl	108 to 110
COC(=O)Cc1ccc(Oc2ccc(S(C)(=O)=O)cc2)cc1	93 to 98
COC(=O)c1cnc2c3cc(NC(=O)CC(C)(C)C)ccc3ncn2c1=O	247 to 249
CC(=O)C(Cc1nsc2ccc(-n3c(=O)cc(C(F)(F)F)n(C)c3=O)cc12)C(=O)OC(C)(C)C (stereo not drawn)	76 to 78
CCc1ccc(Br)c(CC)c1-n1cncc1C(=O)O	224 to 227
CCOC(=O)c1cc(N)nn1C	57 to 58

More lines, now with the values ahead:

melting point [°C]	SMILES
195 to 196	CC(=O)N1CCC(C(=O)Nc2ccccc2Oc2ccc(Cl)cc2)CC1
159 to 161	O=C(c1cccs1)c1cnn2c(-c3cccc(NC(=O)C4CCNCC4)c3)ccnc12
256 to 257	CCCn1c(=O)c2[nH]c(/C=C/c3cccc([N+](=O)[O-])c3)nc2n(CCC)c1=O
118 to 119	COC(=O)C(=O)c1ccc(OCCOc2ccc3ccccc3c2)c(C)c1
222 to 224	CC(=O)Nc1ccc(S(=O)(=O)Nc2ccn(CC3CC3)c(=O)n2)cc1
182 to 185	Cc1cccc2cc3c(=O)n(CCc4cn(C(=O)NCCN(C)C)c5ccccc45)cc(C(=O)NCCN(C)C)c3nc12
277 to 279	O=C(CCCOc1ccc2nc3[nH]c(=O)[nH]c3cc2c1)N1CCN(c2ccccc2)CC1
285 to 288	O=c1[nH]c2cc(Cl)cc(Cl)c2c(O)c1Sc1ccccc1Br
80 to 83	CSCCCn1nc(-c2cccc(C(F)(F)F)c2F)c(=O)c2ccccc21
177 to 179	O=C(O)C(CCc1ccccc1[N+](=O)[O-])N1C(=O)c2ccccc2C1=O (stereo not drawn)
124 to 125	COCCNC(=O)c1cccc(-c2cccc3cc(Cc4cc(F)cc(Cl)c4)sc23)c1F
170 to 171	O=C1c2ccc(Cl)cc2C(=O)N1CCN1CCC(c2noc3cc(F)ccc23)CC1
107 to 109	O=C(O)c1cc(OCCCc2ccccc2)cc(OCCCc2ccccc2)c1
210 to 213	COc1cc2c(cc1OC)C(=O)C(=CC=Cc1ccc(N(C)C)cc1)C2
199 to 200	CC(C)n1nc(-c2cc(C(N)=O)c(Cl)nc2-c2ccccc2)ccc1=O
131 to 134	CN1CCCC1CCNc1ncc2c(c1C#N)-c1ccccc1C(c1ccc(Cl)c(Cl)c1)C2 (stereo not drawn)
131 to 133	COc1ccc(/C=C/C(=O)Nc2ccccc2)cc1OC
105 to 106	O=c1oc(/C=C/c2ccccc2)ns1
171 to 172	Brc1ccc(C=Cc2cc3ccccc3s2)s1
176 to 177	CCOC(=O)c1nnc(-c2cc3cccc(N(C)S(=O)(=O)c4cccs4)c3[nH]2)s1
190 to 192	CS(=O)(=O)c1ccc(-c2c(-c3ccccc3)nc3sccn23)cc1
196 to 197	COc1ccccc1N1CCN(CCn2c(=O)[nH]c3sc(C)c(C)c3c2=O)CC1
272 to 274	COCc1nc2cccc(C(=O)O)c2n1Cc1ccc(-c2ccccc2-c2nnn[nH]2)cc1
> 260	COc1cccc(-n2c(=O)[nH]c3c(C(N)=O)nc(-c4cccc(O)c4)nc32)c1F
100 to 103	BrCc1noc2c1ccc1ccccc12
83	COc1ccc2cccc(CC#N)c2c1
118 to 119	O=C(O)CCCc1ccc(-c2ccccc2)cc1
169 to 170	O=C(N[C@H](Cc1ccccc1)C(=O)O)OCc1cc2cc(-c3ccsc3)ccc2o1
213 to 214	COc1ccc(Oc2cc3c(cc2Cl)C=C(C(=O)O)C(C(F)(F)F)O3)cc1 (stereo not drawn)
115 to 118	O=CC1C(c2ccc(F)cc2)CCC12C=Cc1ccccc12 (stereo not drawn)
